Data as given in ChEMBL document CHEMBL4800726, “Data for DCP probe MSC-4381” (2021).

Key:
[1] = biological target: Monocarboxylate transporter 2/3 (Homo sapiens, UniProt O60669+O95907); test: Lactate efflux inhibition assay (RT4); type: protein assay
[2] = biological target: 5-hydroxytryptamine receptor 2A (Homo sapiens) (UniProt P28223); details: Compound concentration 10.0 uM
[3] = biological target: 5-hydroxytryptamine receptor 2B (Homo sapiens) (UniProt P41595); details: Compound concentration 10.0 uM
Chain of 5-hydroxytryptamine receptor 2B (Homo sapiens) (P41595 whole entry): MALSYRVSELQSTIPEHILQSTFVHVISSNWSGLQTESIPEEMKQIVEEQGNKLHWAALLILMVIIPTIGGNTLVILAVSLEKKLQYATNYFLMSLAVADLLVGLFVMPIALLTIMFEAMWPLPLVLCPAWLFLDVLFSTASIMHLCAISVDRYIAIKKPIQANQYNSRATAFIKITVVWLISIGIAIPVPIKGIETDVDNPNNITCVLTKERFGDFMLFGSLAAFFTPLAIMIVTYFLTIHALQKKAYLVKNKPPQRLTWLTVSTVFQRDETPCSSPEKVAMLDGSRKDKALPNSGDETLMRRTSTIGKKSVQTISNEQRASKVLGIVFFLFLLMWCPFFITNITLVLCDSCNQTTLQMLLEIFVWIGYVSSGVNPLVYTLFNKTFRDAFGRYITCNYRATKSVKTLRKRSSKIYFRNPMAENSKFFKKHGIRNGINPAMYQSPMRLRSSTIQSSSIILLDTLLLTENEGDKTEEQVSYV

[4] = biological target: 5-hydroxytryptamine receptor 2C (Homo sapiens) (UniProt P28335); details: Compound concentration 10.0 uM
[5] = biological target: 5-hydroxytryptamine receptor 6 (Homo sapiens, UniProt P50406); details: Compound concentration 10.0 uM
Chain of 5-hydroxytryptamine receptor 6 (P50406 whole entry): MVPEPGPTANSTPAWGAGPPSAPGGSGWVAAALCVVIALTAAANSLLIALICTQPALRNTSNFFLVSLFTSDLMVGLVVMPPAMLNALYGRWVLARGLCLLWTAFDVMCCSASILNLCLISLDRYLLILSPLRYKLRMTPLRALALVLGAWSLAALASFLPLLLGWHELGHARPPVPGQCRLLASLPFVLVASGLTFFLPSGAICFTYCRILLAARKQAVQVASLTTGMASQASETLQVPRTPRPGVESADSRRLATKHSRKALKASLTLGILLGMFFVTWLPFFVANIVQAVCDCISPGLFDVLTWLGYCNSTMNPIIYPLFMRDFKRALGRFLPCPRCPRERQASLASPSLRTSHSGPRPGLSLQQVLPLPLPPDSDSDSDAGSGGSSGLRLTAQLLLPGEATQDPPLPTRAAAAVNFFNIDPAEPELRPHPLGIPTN

[6] = biological target: 5-hydroxytryptamine receptor 7 (Homo sapiens) (UniProt P34969); details: Compound concentration 10.0 uM
[7] = biological target: D(1A) dopamine receptor (Homo sapiens) (UniProt P21728); details: Compound concentration 10.0 uM
Chain of D(1A) dopamine receptor (Homo sapiens) (P21728 whole entry): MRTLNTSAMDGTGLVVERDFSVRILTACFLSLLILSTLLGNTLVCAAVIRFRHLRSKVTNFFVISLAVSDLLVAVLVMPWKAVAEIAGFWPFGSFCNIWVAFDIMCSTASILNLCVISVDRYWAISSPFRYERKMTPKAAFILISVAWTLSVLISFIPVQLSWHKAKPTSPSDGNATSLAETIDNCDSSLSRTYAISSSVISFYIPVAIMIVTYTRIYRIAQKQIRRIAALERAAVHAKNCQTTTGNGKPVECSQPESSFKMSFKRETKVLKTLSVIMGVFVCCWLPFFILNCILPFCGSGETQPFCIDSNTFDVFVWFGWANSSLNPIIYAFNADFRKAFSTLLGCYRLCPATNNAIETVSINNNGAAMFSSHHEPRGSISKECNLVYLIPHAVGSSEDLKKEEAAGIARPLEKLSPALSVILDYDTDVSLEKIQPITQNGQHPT

[8] = biological target: D(2) dopamine receptor (Homo sapiens) (UniProt P14416); details: Compound concentration 10.0 uM
[9] = biological target: D(4) dopamine receptor (Homo sapiens) (UniProt P21917); details: Compound concentration 10.0 uM
[10] = biological target: Sodium-dependent serotonin transporter (Homo sapiens) (UniProt P31645); details: Compound concentration 10.0 uM
[11] = biological target: Sodium-dependent dopamine transporter (Homo sapiens, UniProt Q01959); details: Compound concentration 10.0 uM
[12] = biological target: Delta-type opioid receptor (Homo sapiens, UniProt P41143); details: Compound concentration 10.0 uM
Chain of Delta-type opioid receptor (P41143 whole entry): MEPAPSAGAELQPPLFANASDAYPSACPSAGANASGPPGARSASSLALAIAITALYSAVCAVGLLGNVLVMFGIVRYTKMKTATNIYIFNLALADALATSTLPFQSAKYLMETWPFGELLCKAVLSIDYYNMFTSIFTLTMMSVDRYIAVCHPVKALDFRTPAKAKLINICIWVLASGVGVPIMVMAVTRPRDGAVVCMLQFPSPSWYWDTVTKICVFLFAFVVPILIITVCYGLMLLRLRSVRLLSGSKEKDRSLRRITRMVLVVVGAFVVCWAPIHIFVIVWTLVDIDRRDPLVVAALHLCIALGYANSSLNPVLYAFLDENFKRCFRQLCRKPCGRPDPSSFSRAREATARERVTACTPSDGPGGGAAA

[13] = biological target: Histamine H1 receptor (Homo sapiens) (UniProt P35367); details: Compound concentration 10.0 uM
Chain of Histamine H1 receptor (Homo sapiens) (P35367 whole entry): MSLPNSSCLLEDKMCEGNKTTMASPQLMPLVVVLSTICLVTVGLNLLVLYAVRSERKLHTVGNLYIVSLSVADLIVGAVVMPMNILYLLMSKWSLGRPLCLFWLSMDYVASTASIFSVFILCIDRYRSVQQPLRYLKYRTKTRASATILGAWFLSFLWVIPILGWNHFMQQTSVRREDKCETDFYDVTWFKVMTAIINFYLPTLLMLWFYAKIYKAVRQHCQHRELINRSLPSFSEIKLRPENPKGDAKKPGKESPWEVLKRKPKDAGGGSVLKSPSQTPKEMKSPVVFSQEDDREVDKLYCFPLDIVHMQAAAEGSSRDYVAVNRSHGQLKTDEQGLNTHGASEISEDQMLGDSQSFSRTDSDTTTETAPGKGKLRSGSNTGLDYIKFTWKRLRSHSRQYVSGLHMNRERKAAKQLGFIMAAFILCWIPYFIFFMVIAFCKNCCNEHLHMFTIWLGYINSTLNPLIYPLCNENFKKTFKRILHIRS

[14] = biological target: Alpha-1A adrenergic receptor (Homo sapiens) (UniProt P35348); details: Compound concentration 10.0 uM
[15] = biological target: Alpha-1B adrenergic receptor (Homo sapiens) (UniProt P35368); details: Compound concentration 10.0 uM
[16] = biological target: Alpha-2A adrenergic receptor (Homo sapiens) (UniProt P08913); details: Compound concentration 10.0 uM
Chain of Alpha-2A adrenergic receptor (Homo sapiens) (P08913 whole entry): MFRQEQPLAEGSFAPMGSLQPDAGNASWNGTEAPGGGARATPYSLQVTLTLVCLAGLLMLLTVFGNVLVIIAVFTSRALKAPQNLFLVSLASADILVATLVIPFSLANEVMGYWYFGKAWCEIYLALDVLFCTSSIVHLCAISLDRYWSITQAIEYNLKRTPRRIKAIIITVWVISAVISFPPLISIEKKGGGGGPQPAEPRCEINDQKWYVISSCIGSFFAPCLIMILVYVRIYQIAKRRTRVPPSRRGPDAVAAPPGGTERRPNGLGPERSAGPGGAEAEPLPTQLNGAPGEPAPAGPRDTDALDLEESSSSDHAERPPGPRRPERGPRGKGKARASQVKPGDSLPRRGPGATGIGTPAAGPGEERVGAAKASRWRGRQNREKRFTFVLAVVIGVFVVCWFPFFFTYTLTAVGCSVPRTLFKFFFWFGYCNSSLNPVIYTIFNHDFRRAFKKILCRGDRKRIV

[17] = biological target: Alpha-2B adrenergic receptor (Homo sapiens) (UniProt P18089); details: Compound concentration 10.0 uM
[18] = biological target: Alpha-2C adrenergic receptor (Homo sapiens) (UniProt P18825); details: Compound concentration 10.0 uM
[19] = biological target: Beta-1 adrenergic receptor (Homo sapiens) (UniProt P08588); details: Compound concentration 10.0 uM
Chain of Beta-1 adrenergic receptor (Homo sapiens) (P08588 whole entry, looked up): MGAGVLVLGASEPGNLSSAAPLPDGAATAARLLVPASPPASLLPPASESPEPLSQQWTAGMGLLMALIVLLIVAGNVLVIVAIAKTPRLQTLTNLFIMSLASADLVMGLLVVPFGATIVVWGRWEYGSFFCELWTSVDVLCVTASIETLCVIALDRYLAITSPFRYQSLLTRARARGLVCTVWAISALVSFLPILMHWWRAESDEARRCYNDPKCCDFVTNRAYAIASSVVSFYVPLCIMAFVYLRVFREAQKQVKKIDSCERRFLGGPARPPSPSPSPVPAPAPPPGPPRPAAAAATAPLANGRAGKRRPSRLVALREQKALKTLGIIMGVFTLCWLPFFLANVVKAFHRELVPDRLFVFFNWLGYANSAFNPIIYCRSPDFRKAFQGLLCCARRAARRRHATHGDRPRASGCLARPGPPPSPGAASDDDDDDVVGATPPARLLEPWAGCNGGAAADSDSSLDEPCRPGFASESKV

[20] = biological target: Beta-2 adrenergic receptor (Homo sapiens) (UniProt P07550); details: Compound concentration 10.0 uM
[21] = biological target: T1, Muscarinic acetylcholine receptor M1 (Homo sapiens) (UniProt P11229); details: Compound concentration 10.0 uM
T1 sequence (whole entry): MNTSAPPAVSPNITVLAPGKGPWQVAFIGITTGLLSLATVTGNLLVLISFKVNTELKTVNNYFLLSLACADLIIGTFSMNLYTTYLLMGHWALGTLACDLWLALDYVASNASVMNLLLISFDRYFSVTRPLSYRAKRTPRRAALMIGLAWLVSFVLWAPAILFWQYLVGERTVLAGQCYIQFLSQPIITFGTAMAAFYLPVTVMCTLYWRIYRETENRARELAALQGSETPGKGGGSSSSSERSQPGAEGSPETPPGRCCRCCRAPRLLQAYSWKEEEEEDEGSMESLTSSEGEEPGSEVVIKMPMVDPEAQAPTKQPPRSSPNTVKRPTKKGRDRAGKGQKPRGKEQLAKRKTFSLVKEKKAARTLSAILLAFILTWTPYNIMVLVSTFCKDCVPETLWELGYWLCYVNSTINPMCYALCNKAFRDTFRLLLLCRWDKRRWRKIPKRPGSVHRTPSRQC

[22] = biological target: Muscarinic acetylcholine receptor M4 (Homo sapiens) (UniProt P08173); details: Compound concentration 10.0 uM
Chain of Muscarinic acetylcholine receptor M4 (Homo sapiens) (P08173 whole entry): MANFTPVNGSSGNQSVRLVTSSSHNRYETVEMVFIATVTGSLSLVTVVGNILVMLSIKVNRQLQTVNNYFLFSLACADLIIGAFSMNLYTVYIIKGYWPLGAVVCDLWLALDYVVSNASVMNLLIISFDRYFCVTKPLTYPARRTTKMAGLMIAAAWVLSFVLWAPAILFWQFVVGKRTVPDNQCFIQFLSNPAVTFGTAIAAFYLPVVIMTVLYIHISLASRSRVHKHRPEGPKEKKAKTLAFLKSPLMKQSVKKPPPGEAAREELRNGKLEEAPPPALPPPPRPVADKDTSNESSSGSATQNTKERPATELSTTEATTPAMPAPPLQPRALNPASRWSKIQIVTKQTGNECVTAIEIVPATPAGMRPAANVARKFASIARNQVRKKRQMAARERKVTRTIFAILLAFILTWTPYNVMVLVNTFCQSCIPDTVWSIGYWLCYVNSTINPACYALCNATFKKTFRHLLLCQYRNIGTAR

[23] = biological target: T2, Muscarinic acetylcholine receptor M5 (Homo sapiens) (UniProt P08912); details: Compound concentration 10.0 uM
T2 sequence (whole entry): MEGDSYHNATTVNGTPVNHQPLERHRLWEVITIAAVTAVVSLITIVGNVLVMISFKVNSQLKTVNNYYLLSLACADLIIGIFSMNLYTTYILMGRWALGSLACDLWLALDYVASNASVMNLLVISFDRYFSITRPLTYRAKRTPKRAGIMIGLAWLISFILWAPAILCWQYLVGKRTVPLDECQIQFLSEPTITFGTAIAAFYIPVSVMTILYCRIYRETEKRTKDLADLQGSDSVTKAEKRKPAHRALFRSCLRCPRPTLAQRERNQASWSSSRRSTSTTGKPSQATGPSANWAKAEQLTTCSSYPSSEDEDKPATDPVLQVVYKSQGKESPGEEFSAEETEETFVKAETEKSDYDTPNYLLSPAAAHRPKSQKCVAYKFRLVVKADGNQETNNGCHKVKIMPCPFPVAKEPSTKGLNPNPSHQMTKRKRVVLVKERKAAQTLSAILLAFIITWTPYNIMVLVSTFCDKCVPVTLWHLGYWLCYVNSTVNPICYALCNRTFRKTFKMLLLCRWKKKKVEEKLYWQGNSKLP

[24] = biological target: GABA-A receptor; anion channel (Rattus norvegicus) (UniProt O09028+P15431+P18506+P18508+P19969+P20236+P23574+P23576+P28471+P28473+P30191+P62813+P63079+P63138+Q91ZM7+Q9ES14); details: Compound concentration 10.0 uM
Rattus norvegicus = organism: Rattus norvegicus; details: Compound concentration 10.0 uM
[25] = biological target: Alpha-1D adrenergic receptor (Homo sapiens) (UniProt P25100); details: Compound concentration 10.0 uM
Chain of Alpha-1D adrenergic receptor (Homo sapiens) (P25100 whole entry): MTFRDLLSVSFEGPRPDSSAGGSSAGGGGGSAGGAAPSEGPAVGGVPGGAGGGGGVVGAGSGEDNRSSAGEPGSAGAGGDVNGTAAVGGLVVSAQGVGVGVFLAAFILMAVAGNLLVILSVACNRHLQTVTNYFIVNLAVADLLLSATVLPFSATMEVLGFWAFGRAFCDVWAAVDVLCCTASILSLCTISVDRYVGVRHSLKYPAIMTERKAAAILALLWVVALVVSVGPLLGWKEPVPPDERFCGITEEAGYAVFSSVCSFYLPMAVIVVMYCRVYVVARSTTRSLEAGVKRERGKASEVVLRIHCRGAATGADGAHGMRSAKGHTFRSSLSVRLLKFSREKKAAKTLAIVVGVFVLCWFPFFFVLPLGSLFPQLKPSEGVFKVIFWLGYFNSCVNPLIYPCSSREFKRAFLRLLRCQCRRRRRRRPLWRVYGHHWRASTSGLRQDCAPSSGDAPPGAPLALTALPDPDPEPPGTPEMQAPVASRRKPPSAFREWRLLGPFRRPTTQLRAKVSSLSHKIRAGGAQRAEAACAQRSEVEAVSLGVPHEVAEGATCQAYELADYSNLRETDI

[26] = biological target: Sigma non-opioid intracellular receptor 1 (Homo sapiens) (UniProt Q99720); details: Compound concentration 10.0 uM
Chain of Sigma non-opioid intracellular receptor 1 (Homo sapiens) (Q99720 whole entry): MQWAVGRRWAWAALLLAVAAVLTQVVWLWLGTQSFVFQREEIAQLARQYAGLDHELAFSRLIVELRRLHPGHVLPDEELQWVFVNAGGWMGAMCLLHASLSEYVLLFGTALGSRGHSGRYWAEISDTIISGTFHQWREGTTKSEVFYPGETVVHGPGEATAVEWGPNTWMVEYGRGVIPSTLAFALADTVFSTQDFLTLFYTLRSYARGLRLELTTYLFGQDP

Chain of 5-hydroxytryptamine receptor 2A (Homo sapiens) (P28223 whole entry): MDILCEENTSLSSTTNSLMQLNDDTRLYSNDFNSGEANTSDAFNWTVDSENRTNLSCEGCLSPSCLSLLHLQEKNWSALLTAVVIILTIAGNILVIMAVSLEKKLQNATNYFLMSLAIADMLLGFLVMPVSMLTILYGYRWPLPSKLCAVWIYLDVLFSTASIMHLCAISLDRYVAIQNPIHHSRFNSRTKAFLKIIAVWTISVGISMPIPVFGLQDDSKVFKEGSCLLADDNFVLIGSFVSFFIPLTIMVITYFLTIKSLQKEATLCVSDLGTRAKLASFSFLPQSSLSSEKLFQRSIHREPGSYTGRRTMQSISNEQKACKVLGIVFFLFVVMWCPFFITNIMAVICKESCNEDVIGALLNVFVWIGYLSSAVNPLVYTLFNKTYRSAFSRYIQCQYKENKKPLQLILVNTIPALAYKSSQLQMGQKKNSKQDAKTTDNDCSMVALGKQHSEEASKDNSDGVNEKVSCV

Compound	IC50 [1]	inhibition [2]	inhibition [3]	inhibition [4]	inhibition [5]	inhibition [6]	inhibition [7]	inhibition [8]	inhibition [9]	inhibition [10]	inhibition [11]	inhibition [12]	inhibition [13]	inhibition [14]	inhibition [15]	inhibition [16]	inhibition [17]	inhibition [18]	inhibition [19]	inhibition [20]	further results
COc1cc(C(=O)O)ncc1C#Cc1ccccc1NS(=O)(=O)c1cccc2c(N(C)C)ccnc12 [MSC-0516]	> 4 µM (not active)	9.61%	34.9%	7.95%	65.5%	-2.53%	17.8%	-0.32%	4.65%	3.99%	80.3%	84.3%	-1.47%	13.7%	16.9%	44.4%	8.34%	13%	16.7%	-2.19%	inhibition [21]: 25%; inhibition [22]: -5.83%; inhibition [23]: -3.36%; inhibition [24]: 25.6%; inhibition (Rattus norvegicus): 60.4%; inhibition [25]: 1.48%; inhibition [26]: 18.7%
CCOc1ccc(S(=O)(=O)Nc2ccc(Cl)cc2C#Cc2cnc(C(=O)O)cc2OC)c2ncccc12 [MSC-4381]	0.638 µM	-0.22%	8.83%	24.4%	25.9%	2.02%	8.58%	9.9%	4.2%	6.49%	23.4%	-8.88%	21.7%	13.3%	-9.4%	26%	15%	27.7%	18.8%	14.8%	inhibition [21]: 16.3%; inhibition [22]: 4.24%; inhibition [23]: -6.26%; inhibition [24]: 0.15%; inhibition (Rattus norvegicus): 45%; inhibition [25]: 20.8%; inhibition [26]: -6.66%
